Measurements: US9528143B2, “Tracer reagents that enhance reaction-product analysis” (Sigma-Aldrich Co. LLC, priority 1999, dated 2016)

Assays:
[1] = system: restriction enzymes; experiment: Restriction digest of NdeI-cut pUC19 with and without dye, agarose gel; type: biochemical; details: crude dye, all enzymes tested with the exception of KpnI, FIG. 17
Procedure: The effectiveness of restriction enzymes in cutting target DNA when a dye is present in the reaction mixture was evaluated. A variety of restriction enzymes were assayed for the detrimental effect of adding Amaranth (No. 31, Table 2) to a restriction digest as assayed by agarose gel electrophoresis. NdeI-cut pUC19 plasmid was prepared. This linearized plasmid was then digested with one of several restriction enzymes which normally cut pUC19 at a polylinker site. Thus, each enzyme would be expected to yield a product of similar sizes (ranging from 212 to 263 bp). The restriction enzyme digests were performed in the presence, or absence, of Amaranth dye, and at various concentrations of the enzyme. Column 1 (the leftmost column) contains 100 bp molecular weight ladders. Columns 2-4 contains cleavage products from sequential 5-fold dilutions of the restriction enzymes in the presence of dye. Columns 5-7 are as columns 2-4 but without dye. Columns 2 and 5 contained the restriction enzyme at 1/10th the suppliers concentration (i.e. the enzyme was considered a 10× concentration). The buffers used for the digests were as recommended by the supplier. The enzymes used are listed along the right side of the gel. The relative susceptibility of the enzyme to the dyes' presence is reported next to the enzyme. The sizes of the small bands in the electrophoresis runs range from 212 to 263 bp. […]

[2] = biological target: T1, Taq DNA polymerase (Thermus aquaticus, UniProt P19821); experiment: PCR yield (TCA precipitation) versus dye concentration, purity and counterion; type: biochemical; details: for PCR toxicity by counterion: FIGS. 12A and 12B
T1 construct: purchased Sigma Chemical Co., St. Louis, Mo
Procedure: The dyes that survived these preceding tests were included in a PCR toxicity study. The dyes were added to PCR reactions at concentrations considered adequate for product performance. Enough of a 2× PCR master mix consisting of Taq DNA polymerase, 0.1 u/μl (Sigma Chemical Co., St. Louis, Mo.), PCR buffer (2×) (Sigma), dNTP's (200 μM each) (Sigma), α^32PdCTP (Amersham USA, Piscataway, N.J.), target DNA (lambda, 2 ng/μl) (Sigma) and primers (Perkin-Elmer 500 bp control, 2 μM) (Perkin-Elmer, Norwalk, Conn.) was prepared to accommodate all 11 remaining dyes plus three no dye controls. Ten μl of the 2× master mix was dispensed into reaction tubes followed by addition of 10 μl of aqueous darkly colored dye solutions or water (controls). The PCR cycling protocol was 20 cycles of 94/55/72° C. at one minute each. 20 μl of quench solution ([…] calf thymus DNA, 20 mM EDTA) was added followed by precipitation with 40 μl 40% trichloroacetic acid (TCA)/4% sodium pyrophosphate (NaPPi). The reactions were filtered on glass fiber filters, washed with 5% TCA/2% NaPPi and counted by scintillation methods. This quench/precipitation procedure will henceforth be referred to as “TCA precipitation”. […] The dyes that inhibited PCR were dropped from consideration (FIG. 6, PCR Tox, Table 2, those marked under “PCR”). […] Per cycle yield was calculated assuming the overall yield was the per cycle yield raised to the 20th power (FIG. 7). In FIG. 7, T1, T2, and T3 represent Taq controls (no dye) as in block and precipitation, numerals are dye number. Per cycle yield is calculated assuming […] where y is the 20 cycle yield (measured) and y1 is the per cycle yield. Table 3 summarizes the results as graphically depicted in FIG. 7 for each of dyes 23, 24, 25, 26, 31, and 39.
On the basis of performance to this point, the remaining dyes were considered substantially equivalent as tracer candidates. Acid violet 5 (number 39, Table 2) was chosen as a possible finalist candidate. Using this dye in a reaction mix at an absorbance of 10 (at its absorbance maximum of 527 nm) a PCR reaction was performed. […] This was considered unacceptable, but was overcome by further development efforts.
In general, the available dyes, as well as those investigated, are derived from unrelated applications. That is, many are used as fabric dyes, food colorings, biological stains etc. As such, they are available in various states of purity. In the case of the finalists, they all had purities of 80% or less, as determined by the product labels. In further experiments, PCR yields (determined by TCA precipitation) in reactions containing various concentrations of acid violet 5 (determined by A527) were compared before and after purification of the crude dye by reverse phase desalting. […] Since reversed phase desalting is not an attractive method for large scale dye purification, acid precipitation followed by ammonium hydroxide dissolution/evaporation to produce the ammonium dye was investigated. This procedure should result in an essentially salt free product. These procedures (reversed phase desalting and acid/ammonium hydroxide) were carried out for acid red 1 (No. 26, Table 2) and acid violet 5 (No. 39). […] The dyes were converted to their magnesium salts to further characterize the effect of counterion identity. This was accomplished by addition of magnesium chloride (excess) to a solution of the crude dye. The magnesium dye that immediately precipitated was recrystallized from water. […] In analogy with the magnesium salts, the calcium and zinc salts of acid red 1 were prepared to investigate whether the effect was divalent vs. monovalent cation or cation identity specific.

[3] = biological target: Taq polymerase (Thermus aquaticus, UniProt P19821); details: Hoppe et al., BioTechniques 12:679-680 (1992); cited from earlier work
Chain of Taq polymerase (P19821 whole entry): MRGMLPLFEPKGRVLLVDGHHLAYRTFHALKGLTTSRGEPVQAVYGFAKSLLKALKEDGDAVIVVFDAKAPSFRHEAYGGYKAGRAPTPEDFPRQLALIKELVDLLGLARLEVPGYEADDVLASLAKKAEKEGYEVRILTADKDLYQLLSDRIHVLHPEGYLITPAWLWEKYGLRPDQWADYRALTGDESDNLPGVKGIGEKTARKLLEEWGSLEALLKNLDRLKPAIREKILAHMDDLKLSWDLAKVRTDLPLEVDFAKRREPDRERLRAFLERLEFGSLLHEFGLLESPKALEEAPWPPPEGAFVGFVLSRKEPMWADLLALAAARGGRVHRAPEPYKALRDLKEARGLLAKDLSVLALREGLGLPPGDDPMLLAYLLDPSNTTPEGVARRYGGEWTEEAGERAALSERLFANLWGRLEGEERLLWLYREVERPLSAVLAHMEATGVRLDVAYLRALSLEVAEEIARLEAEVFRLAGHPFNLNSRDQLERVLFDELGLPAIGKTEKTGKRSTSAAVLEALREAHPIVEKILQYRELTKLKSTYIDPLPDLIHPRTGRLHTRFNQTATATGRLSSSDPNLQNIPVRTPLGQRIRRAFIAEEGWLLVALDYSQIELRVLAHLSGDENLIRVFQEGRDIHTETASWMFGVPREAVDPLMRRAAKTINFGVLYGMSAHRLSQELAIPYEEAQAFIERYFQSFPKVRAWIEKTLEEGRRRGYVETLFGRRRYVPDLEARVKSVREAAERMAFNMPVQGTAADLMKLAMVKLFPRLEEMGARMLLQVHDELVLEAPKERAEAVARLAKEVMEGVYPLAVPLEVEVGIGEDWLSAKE

T1 sequence (P19821 whole entry): as above

O=S(=O)([O-])c1ccc2c(N=Nc3ccc(S(=O)(=O)[O-])c4ccccc34)c(O)c(S(=O)(=O)[O-])cc2c1.[Na+].[Na+].[Na+] [Dye 31, Amaranth]
effect of dye on restriction enzyme digests [1]: relatively inert

CC(=O)Nc1ccc(N=Nc2c(S(=O)(=O)[O-])cc3cc(S(=O)(=O)[O-])cc(NS(=O)(=O)c4ccc(C)cc4)c3c2O)cc1.[Na+].[Na+] [Dye 39, Acid Violet 5]
loss in PCR product yield ([2]; dye in reaction mix at absorbance of 10 at 527 nm, relative to same reaction without dye, FIG. 10): ≥ 50%

CC(=O)Nc1cc(S(=O)(=O)[O-])cc2cc(S(=O)(=O)[O-])c(N=Nc3ccccc3)c(O)c12.[Na+].[Na+] [acid red 1 Mg salt, acid red 1]
PCR toxicity of magnesium vs calcium and zinc salts ([2]; FIG. 12C): least toxic | PCR toxicity by counterion [2]: much less toxic to PCR than either the sodium or ammonium salts

CC(=O)Nc1cc(S(=O)(=O)[O-])cc2cc(S(=O)(=O)[O-])c(N=Nc3ccccc3)c(O)c12.[Na+].[Na+] [acid red 1 ammonium, acid red 1]
PCR toxicity by counterion [2]: more PCR toxic than the sodium

Cc1cc(C2(c3ccc(O)c(C)c3)OS(=O)(=O)c3ccccc32)ccc1O [cresol red]
compatibility with Taq [3]: compatible with Taq

OC[C@H]1O[C@@](CO)(O[C@H]2O[C@H](CO)[C@@H](O)[C@H](O)[C@H]2O)[C@@H](O)[C@@H]1O [sucrose]
compatibility with Taq [3]: compatible with Taq

O=C([O-])C1=NN(c2ccc(S(=O)(=O)[O-])cc2)C(=O)C1N=Nc1ccc(S(=O)(=O)[O-])cc1.[Na+].[Na+].[Na+] (centres unmarked) [tartrazine]
compatibility with Taq [3]: compatible with Taq

acid violet 5 [acid violet 5 Mg salt]
PCR toxicity by counterion [2]: much less toxic to PCR than either the sodium or ammonium salts

acid violet 5 [acid violet 5 ammonium]
PCR toxicity by counterion [2]: more PCR toxic than the sodium

acid violet 5 [acid violet 5 desalted]
susceptibility of PCR product yield to dye concentration ([2]; desalted relative to crude compound, FIG. 11): much less susceptible to dye concentration
